Assay in all cases: Post-emergence field trial, visual weed control
What all share (type): in vivo

For assay [1], the system named is AMARE = pigweed, redroot (Amaranthus retroflexus L.). The note with it: foliar. As for the experimental part: (§1) Multiple post-emergence field trials were conducted under field conditions in the United States (Mississippi, South Dakota, and Minnesota) and Mexico. Trial sites were located in commercially grown fields of corn (ZEAMX), spring wheat (TRZAS), and winter wheat (TRZAW), using standard herbicide small plot research methodology. Post-emergence trial plot size varied from 2 to 3 meter (m)×4 to 5 m (width×length) with 4 replicates per treatment. The crops were grown using normal cultural practices for fertilization, seeding, watering, and maintenance to ensure good growth of the crops and the weeds.
(§2) All treatments in the post-emergence field trials were applied using a backpack compressed carbon dioxide (CO2) or nitrogen (N2) sprayer with flat fan nozzles calibrated to apply 94 to 250 liters per hectare (L/ha) spray volume at approximately 30-40 pounds per square inch (psi) nozzle pressure. Commercially available products of fluoroxypyr-meptyl (STARANE® 200, 200 grams acid equivalent per liter (g ae/L) and fluoroxypyr-meptyl EC 240 g ae/L) and flumetsulam (75WDG) were mixed in water at appropriate formulated product rates to achieve the desired rates based on a unit area of application (hectare) to achieve the desired rates as shown. […] Treatments were rated at 7 to 45 days after application (DAA) as compared to the untreated control plants. Visual weed control was scored on a scale of 0 to 100 percent where “0” corresponds to no injury and “100” corresponds to complete kill.
(§3) The trial sites had naturally occurring populations of weeds. The weed spectrum included, but was not limited to, AMARE, AMASS, CHEAL, CHEMU, IPOLA, KCHSC, POLCO, RUMCR, and SASKR.
(§4) A t-test (alpha=0.05) between Colby predictions and observed combinations was used to test for significant differences indicating synergy or antagonism using replicate data.
(§5) The following equation was used to calculate the expected activity of mixtures containing two active ingredients, A and B: Expected=A+B−(A×B/100) • A=observed efficacy of active ingredient A at the same concentration as used in the mixture; • B=observed efficacy of active ingredient B at the same concentration as used in the mixture.

For assay [2], the system named is AMASS = pigweed species (Amaranthus sp.). The note with it: foliar; for Flumetsulam % Visual Weed Control: flumetsulam 20 g ai/ha. On the procedure:
as §1, §2, §3, §4, §5

For assay [3], the system named is CHEAL = lambsquarters, common (Chenopodium album L.). The note with it: 30 days after application, foliar. On the procedure: as §1, §2, §3, §4, §5
In assay [4] the test system is CHEMU = goosefoot, nettleleaf (Chenopodium murale L.). The following applies: 30 days after application, foliar. As for the experimental part: as §1, §2, §3, §4, §5
For assay [5], the system named is IPOLA = morningglory, pitted (Ipomoea lacunosa L.). The following applies: 28 days after application, foliar. On the procedure:
as §1, §2, §3, §4, §5

The subject of assay [6] is KCHSC = kochia (Kochia scoparia (L.) Schrad.). The following applies: 28 days after application, foliar. On the procedure: as §1, §2, §3, §4, §5
Assay [7] has as its system POLCO = buckwheat, wild (Polygonum convolvulus L.). The note with it: 28 days after application, foliar. On the procedure:
as §1, §2, §3, §4, §5

The subject of assay [8] is RUMCR = dock, curly (Rumex crispus L.). The following applies: 45 days after application, foliar. As for the experimental part: as §1, §2, §3, §4, §5
For assay [9], the system named is SASKR = thistle, Russian (Salsola iberica Sennen & Pau). The following applies: 29 days after application, foliar. As for the experimental part: as §1, §2, §3, §4, §5

From patent publication US9131696B2, “Herbicidal compositions comprising fluroxypyr and flumetsulam” (Dow AgroSciences LLC, priority 2012, dated 2015) come the findings set out here.

As to `CCCCCCC(C)OC(=O)COc1nc(F)c(Cl)c(N)c1Cl` (racemic) [Fluroxypyr-Meptyl, (RS)-1-methylheptyl 4-amino-3,5-dichloro-6-fluoro-2-pyridyloxyacetate], the “Fluroxypyr-Meptyl % Visual Weed Control” value in assay [1] (13 days after application, fluroxypyr-meptyl 110 g ae/ha) is 8%; in assay [1] (28 days after application, fluroxypyr-meptyl 35 g ae/ha) it was 3%; in [1] (28 days after application, fluroxypyr-meptyl 110 g ae/ha), 13%; in [2] (7 days after application, fluroxypyr-meptyl 75 g ae/ha), 15%; in [2] (14 days after application, fluroxypyr-meptyl 50 g ae/ha), 21%; in assay [2] (14 days after application, fluroxypyr-meptyl 75 g ae/ha), 18%. Besides, the “Fluroxypyr-Meptyl % Visual Weed Control” value turned out to be 20% in assay [3] (fluroxypyr-meptyl 75 g ae/ha); 20% in [4] (fluroxypyr-meptyl 50 g ae/ha); 28% in [4] (fluroxypyr-meptyl 75 g ae/ha); 20% in assay [5] (fluroxypyr-meptyl 70 g ae/ha); 30% in assay [6] (fluroxypyr-meptyl 35 g ae/ha); 38% in assay [7] (fluroxypyr-meptyl 35 g ae/ha). Besides, the “Fluroxypyr-Meptyl % Visual Weed Control” value in assay [7] (fluroxypyr-meptyl 70 g ae/ha) came to 64%; in [8] (fluroxypyr-meptyl 75 g ae/ha), 50%; in assay [9] (fluroxypyr-meptyl 35 g ae/ha), 23%.
On to `Cc1ccn2nc(S(=O)(=O)Nc3c(F)cccc3F)nc2n1` [Flumetsulam, 2′,6′-difluoro-5-methyl[1,2,4]triazolo-[1,5-a]pyrimidine-2-sulfonanilide], for which the “Flumetsulam % Visual Weed Control” value turned out to be 81% in assay [1] (13 days after application, flumetsulam 18 g ai/ha); 45% in [1] (28 days after application, flumetsulam 35 g ai/ha); 79% in assay [2] (7 days after application); 81% in assay [2] (14 days after application); 31% in [3] (flumetsulam 15 g ai/ha); 35% in assay [3] (flumetsulam 30 g ai/ha). Moreover, the “Flumetsulam % Visual Weed Control” value in [3] (flumetsulam 60 g ai/ha) worked out at 40%; in assay [4] (flumetsulam 15 g ai/ha) it was 57%; in [4] (flumetsulam 30 g ai/ha), 66%; in assay [4] (flumetsulam 60 g ai/ha), 69%; in assay [5] (flumetsulam 18 g ai/ha), 33%; in assay [6] (flumetsulam 35 g ai/ha), 58%. In addition, the “Flumetsulam % Visual Weed Control” value in assay [7] (flumetsulam 18 g ai/ha) turned out to be 0%; in assay [7] (flumetsulam 35 g ai/ha) it was 0%; in [8] (flumetsulam 15 g ai/ha), 40%; in [8] (flumetsulam 30 g ai/ha) it was 52%; in assay [8] (flumetsulam 60 g ai/ha), 70%; in assay [9] (flumetsulam 9 g ai/ha) it was 67%.
